Source: paper PMC8459971, “Evaluation of the hepatotoxicity of the novel GPR40 (FFAR1) agonist CPL207280 in the rat and monkey” (PLoS ONE, 2021)
“And” between values parts separate entries of the source, which are not always exact repeats. Equal values may be shown once. “Also recorded” adds a separate entry of the source.

Experiments:
[1] = molecular target: BSEP (Homo sapiens, UniProt O95342); experiment: in vitro; conditions: membrane vesicle preparations (BSEP)
[2] = Metabolite profiling, rat hepatocytes; assay type: in vitro ADME; conditions: 10 μM CPL207280, 120 min, ND = not detected
Description: (§1) Suspensions of cryopreserved human, rat, and monkey hepatocytes were pooled from a minimum of three individuals. All cryopreserved hepatocytes were purchased from a commercial supplier. […] The cell density was 0.5 ×10^6 viable cells/mL. The final DMSO concentration during the incubation was 0.25%. Control incubations were performed in lysed cells to reveal any non-enzymatic degradation. Two control compounds were identified in each species. Samples (50 μL) were removed from the incubation mixture at 0, 10, 20, 40, 60, and 120 min and added to methanol containing an internal standard (100 μL) to stop the reaction. The samples were centrifuged (4000 x g at 4°C for 30 min) and the supernatants at each time point were pooled for analysis by LC MS/MS using Cyprotex generic methods. Following hepatocyte stability assays, the samples were utilized for metabolite profiling. […] Metabolites were characterized using a mass spectrometer comprising Waters Xevo QT of G2-S, Acquity Binary Solvent Manager, Acquity Column Manager, and 2777 Autosampler.

[3] = Repeat-dose study in monkeys, pharmacokinetics (14 and 56 days); conditions: monkey; for AUC: exposure - AUC
[4] = Stability in cryopreserved hepatocytes, human; assay type: in vitro ADME; conditions: for Compound Remaining (% of 0 min): Hepatocyte Stability Human, single replicates
Description: (§2) The final incubation volume was 500 μL. Two control compounds (verapamil and donepezil) were included for each microsomal species, along with the appropriate vehicle control. The reactions were terminated by transferring 50 μL of incubate to 100 μL methanol containing an internal standard (metoprolol) at appropriate time points (0, 10, 20, 40, 60, and 120 min for the test compound and 0, 5, 10, 20, 40, and 60 min for the control compounds). The termination plates were centrifuged at 4000 x g at 4°C for 30 min to precipitate the protein. The supernatants were then collected for analysis, and LC-MS/MS was used for detection purposes. The system consisted of an Acquity™ Binary Solvent Manager, Acquity™ 4-position heated column manager, 2777 Ultra High Pressure Autosampler, and a Xevo-TQ MS triple quadrupole mass spectrometer (Waters Ltd., Herts, UK). This process was carried out twice.

[5] = Stability in cryopreserved hepatocytes, mouse; assay type: in vitro ADME; conditions: for Compound Remaining (% of 0 min): Hepatocyte Stability Mouse, single replicates
Description: as §2

[6] = Repeat-dose study in healthy Wistar Han rats, safety (14 and 56 days); assay type: in vivo, rat
[7] = Metabolite profiling, human hepatocytes; assay type: in vitro ADME
Description: as §1

[8] = dose 50 mg/kg, Day 1, individual animals, 50 mg/kg
[9] = dose 50 mg/kg, Day 14, individual animals, 50 mg/kg
[10] = dose 100 mg/kg, Day 1, individual animals, 100 mg/kg
[11] = dose 100 mg/kg, Day 14, individual animals, 100 mg/kg
[12] = dose 150 mg/kg, Day 1, individual animals, 150 mg/kg
[13] = dose 150 mg/kg, Day 56, individual animals, 150 mg/kg
[14] = dose 200 mg/kg, Day 1, individual animals, 200 mg/kg
[15] = dose 200 mg/kg, Day 14, individual animals, 200 mg/kg
[16] = cryopreserved hepatocytes (suspension), Human hepatocytes, mean n = 2
[17] = cryopreserved hepatocytes (suspension), Mouse (CD) hepatocytes, mean n = 2

Sequence of BSEP (O95342 whole entry): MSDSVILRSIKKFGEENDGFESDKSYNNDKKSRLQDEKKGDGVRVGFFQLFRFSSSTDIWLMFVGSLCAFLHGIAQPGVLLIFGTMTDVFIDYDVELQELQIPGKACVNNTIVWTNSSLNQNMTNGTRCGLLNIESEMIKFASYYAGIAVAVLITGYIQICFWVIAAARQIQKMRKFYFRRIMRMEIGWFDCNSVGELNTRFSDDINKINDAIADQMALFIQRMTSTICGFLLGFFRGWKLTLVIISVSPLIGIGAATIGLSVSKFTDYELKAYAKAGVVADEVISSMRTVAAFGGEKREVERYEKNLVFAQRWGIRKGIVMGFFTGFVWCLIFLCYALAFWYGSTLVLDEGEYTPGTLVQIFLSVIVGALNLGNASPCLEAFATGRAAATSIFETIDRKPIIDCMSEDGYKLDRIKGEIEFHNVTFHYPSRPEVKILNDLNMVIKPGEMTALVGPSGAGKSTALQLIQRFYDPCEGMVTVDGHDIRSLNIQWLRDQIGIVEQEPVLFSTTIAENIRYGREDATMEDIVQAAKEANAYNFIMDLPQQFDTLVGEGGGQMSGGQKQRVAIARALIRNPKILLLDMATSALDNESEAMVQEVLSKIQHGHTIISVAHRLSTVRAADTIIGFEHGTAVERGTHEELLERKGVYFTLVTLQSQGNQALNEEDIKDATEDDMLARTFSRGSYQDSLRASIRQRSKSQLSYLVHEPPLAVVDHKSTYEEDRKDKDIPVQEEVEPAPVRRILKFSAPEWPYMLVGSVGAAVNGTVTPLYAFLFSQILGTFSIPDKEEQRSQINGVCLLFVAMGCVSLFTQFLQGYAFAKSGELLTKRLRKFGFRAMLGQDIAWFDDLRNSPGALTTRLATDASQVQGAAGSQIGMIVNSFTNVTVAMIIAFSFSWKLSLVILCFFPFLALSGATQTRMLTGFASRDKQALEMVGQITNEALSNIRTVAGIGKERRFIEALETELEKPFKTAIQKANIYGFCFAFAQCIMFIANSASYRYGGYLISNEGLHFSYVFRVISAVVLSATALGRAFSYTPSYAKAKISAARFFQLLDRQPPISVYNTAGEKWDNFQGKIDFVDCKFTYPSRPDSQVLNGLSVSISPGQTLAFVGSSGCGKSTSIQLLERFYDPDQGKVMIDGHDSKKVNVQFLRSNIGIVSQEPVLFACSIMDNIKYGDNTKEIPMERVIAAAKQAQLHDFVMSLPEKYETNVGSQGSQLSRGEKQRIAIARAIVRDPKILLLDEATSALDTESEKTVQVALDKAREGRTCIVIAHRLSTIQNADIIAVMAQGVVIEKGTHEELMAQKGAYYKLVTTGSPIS

CC#C[C@@H](CC(=O)O)c1ccc(OCC(C)=C(C)C)cc1 [CPL207280]
IC50 [1]: > 100 µM
rat % of parent at 120 min [2]: 57.6%
AUC ([3]; both, Cynomolgus, plasma, po, 100 mg/kg, dose 100 mg/kg, Day 1, individual animals): 334 µg·h/mL
AUC ([3]; both, Cynomolgus, plasma, po, 100 mg/kg, dose 100 mg/kg, Day 14, individual animals): 552 µg·h/mL
Cmax ([3]; both, cynomolgus, plasma, po, 50 mg/kg, Cmax, dose 50 mg/kg, Day 1, individual animals): 38.5 µg/mL
Cmax ([3]; both, cynomolgus, plasma, po, 50 mg/kg, Cmax, dose 50 mg/kg, Day 14, individual animals): 59.8 µg/mL
AUC ([3]; both, cynomolgus, plasma, po, 200 mg/kg, dose 200 mg/kg, Day 1, individual animals): 794 µg·h/mL
AUC ([3]; both, cynomolgus, plasma, po, 200 mg/kg, dose 200 mg/kg, Day 14, individual animals): 919 µg·h/mL
Cmax ([3]; both, plasma, po, 200 mg/kg, Cmax, dose 200 mg/kg, Day 1, individual animals): 258 µg/mL
Cmax [3, 8]: 54.2432 µg/mL and 70.1198 µg/mL and 73.0824 µg/mL
exposure - AUC [3, 8]: 85.565 µg·h/mL and 262.448 µg·h/mL and 140.708 µg·h/mL and 87.498 µg·h/mL and 100.461 µg·h/mL and 109.347 µg·h/mL and 254.256 µg·h/mL and 110.743 µg·h/mL and 146.423 µg·h/mL and 105.958 µg·h/mL and 142.73 µg·h/mL and 220.718 µg·h/mL
Cmax [3, 9]: 77.3656 µg/mL and 85.376 µg/mL and 71.8017 µg/mL
exposure - AUC [3, 9]: 101.909 µg·h/mL and 132.812 µg·h/mL and 431.268 µg·h/mL and 124.571 µg·h/mL
exposure - AUC ([3]; dose 50 mg/kg, Day 56, individual animals, 50 mg/kg): 150.303 µg·h/mL and 89.075 µg·h/mL and 182.055 µg·h/mL and 206.125 µg·h/mL and 124.755 µg·h/mL and 213.673 µg·h/mL and 113.523 µg·h/mL and 83.328 µg·h/mL
Cmax [3, 10]: 47.7304 µg/mL and 196.843 µg/mL and 120.978 µg/mL and 122.802 µg/mL
exposure - AUC [3, 10]: 385.402 µg·h/mL and 219.918 µg·h/mL and 309.18 µg·h/mL
Cmax [3, 11]: 59.7137 µg/mL and 97.7733 µg/mL and 114.927 µg/mL and 30.391 µg/mL
exposure - AUC [3, 11]: 540.113 µg·h/mL and 349.314 µg·h/mL and 371.77 µg·h/mL
Cmax [3, 12]: 174.84 µg/mL and 194.31 µg/mL and 41.31 µg/mL and 61.81 µg/mL and 148.23 µg/mL and 203.64 µg/mL and 215.41 µg/mL and 167.94 µg/mL
exposure - AUC [3, 12]: 687.155 µg·h/mL and 716.453 µg·h/mL and 299.365 µg·h/mL and 303.408 µg·h/mL and 583.353 µg·h/mL and 708.01 µg·h/mL and 517.538 µg·h/mL and 598.748 µg·h/mL
Cmax [3, 13]: 206.99 µg/mL and 230.13 µg/mL and 188.65 µg/mL and 99.77 µg/mL and 256.14 µg/mL and 172.69 µg/mL and 25.09 µg/mL and 47.76 µg/mL
exposure - AUC [3, 13]: 476.098 µg·h/mL and 561.835 µg·h/mL and 462.75 µg·h/mL and 833.928 µg·h/mL and 555.34 µg·h/mL and 670.743 µg·h/mL and 435.418 µg·h/mL and 360.168 µg·h/mL
Cmax [3, 14]: 146.587 µg/mL and 153.261 µg/mL and 191.742 µg/mL
exposure - AUC [3, 14]: 842.687 µg·h/mL and 783.604 µg·h/mL and 691.713 µg·h/mL
Cmax [3, 15]: 263.213 µg/mL and 90.4785 µg/mL and 181.854 µg/mL and 224.986 µg/mL
exposure - AUC [3, 15]: 610.926 µg·h/mL and 654.718 µg·h/mL and 646.623 µg·h/mL
exposure - AUC ([3]; dose 250 mg/kg, Day 1, individual animals, 250 mg/kg): 1583.82 µg·h/mL and 721.808 µg·h/mL and 793.135 µg·h/mL and 1183 µg·h/mL and 1366.178 µg·h/mL and 895.14 µg·h/mL and 850.363 µg·h/mL and 1425.683 µg·h/mL and 1258.01 µg·h/mL and 575.98 µg·h/mL and 469.06 µg·h/mL and 783 µg·h/mL
exposure - AUC ([3]; dose 250 mg/kg, Day 56, individual animals, 250 mg/kg): 1170.11 µg·h/mL and 1015.218 µg·h/mL and 686.383 µg·h/mL and 1887.035 µg·h/mL and 975.73 µg·h/mL and 1235.128 µg·h/mL and 1213.253 µg·h/mL and 997.608 µg·h/mL and 1100.488 µg·h/mL and 1004.075 µg·h/mL and 831.145 µg·h/mL and 1255.683 µg·h/mL
Compound Remaining (% of 0 min) ([4]; 0 min): 100 % of 0 min
Compound Remaining (% of 0 min) ([4]; 10 min): 73.2 % of 0 min and 74.0 % of 0 min
Compound Remaining (% of 0 min) ([4]; 20 min): 42.2 % of 0 min and 46.1 % of 0 min
Compound Remaining (% of 0 min) ([4]; 40 min): 20.6 % of 0 min and 16.0 % of 0 min
Compound Remaining (% of 0 min) ([4]; 60 min): 10.5 % of 0 min and 7.67 % of 0 min
Compound Remaining (% of 0 min) ([4]; 120 min): 3.07 % of 0 min and 1.62 % of 0 min
half-life at 3 μM [4, 16]: 0.283 h
microsomal CLint at 3 μM [4, 16]: 82.8 µL/min/mg
Compound Remaining (% of 0 min) ([5]; 0 min): 100 % of 0 min
Compound Remaining (% of 0 min) ([5]; 10 min): 92.6 % of 0 min and 92.7 % of 0 min
Compound Remaining (% of 0 min) ([5]; 20 min): 92.0 % of 0 min and 89.0 % of 0 min
Compound Remaining (% of 0 min) ([5]; 40 min): 86.8 % of 0 min and 80.9 % of 0 min
Compound Remaining (% of 0 min) ([5]; 60 min): 79.1 % of 0 min and 85.2 % of 0 min
Compound Remaining (% of 0 min) ([5]; 120 min): 81.9 % of 0 min and 77.1 % of 0 min
half-life at 3 μM [5, 17]: 6.73 h
microsomal CLint at 3 μM [5, 17]: 3.46 µL/min/mg
MTD at 14 days ([6]; both sexes, Wistar Han, rat, in vivo, oral, rats, 14-day study, read-out: maximum tolerated dose (MTD)): 600 mg/kg
mortality ([6]; rats, 1200 mg/kg group, 14-day study): death of one subject occurred on day 7
ALT ([6]; rats, 1200 mg/kg, 14 days, fasted blood, significant increase from 34.2±8.5, in U/L (unit assumed)): 60.0±8.0
ALP ([6]; rats, 1200 mg/kg, 14 days, fasted blood, significant increase from 86.3±30.2, in U/L (unit assumed)): 136.1±55.3
ALT, AST and ALP ([6]; rats, 14-day study, doses up to 600 mg/kg): no ALT, AST, and ALP elevation
liver histopathology ([6]; rats, 14 days): no microscopic changes in the liver tissue
liver histopathology ([6]; rats, 56 days): mild to moderate hypertrophy of centrilobular hepatocytes at doses ≥ 150 mg/kg/day; also recorded: minimal to mild centrilobular hepatocyte hypertrophy
liver injury markers, TBA and T-BIL ([6]; rats, 56 days, 50, 150 and 500 mg/kg): none of the previously monitored markers nor TBA and T-BIL were altered
reversibility of hepatocyte hypertrophy / liver weight increase ([6]; rats, 56 days, recovery period): reversible after 28 days
liver mass as a percentage of body weight ([6]; rats, all groups (300, 600, 1200 mg/kg/day), 14 days): dose-dependent enlargement of the liver
Propensity to elevate liver enzyme damage markers ([6]; summary comparison CPL207280 vs TAK-875 (TAK-875: ref 25), sign spans both columns): <
Propensity to elevate bile acids and bilirubin in plasma ([6]; summary table): No
number of metabolites produced by human hepatocytes ([7]; human hepatocytes, 10 μM): 12
human % of parent at 60 min ([7]; human hepatocytes, 10 μM CPL207280, 60 min, ND = not detected): 8.49%
number of metabolites identified ([7]; in all species (humans, rats, mice, monkeys, dogs), hepatocytes, 10 μM): 23
Acyl glucuronide presence in human hepatocytes ([7]; summary table): No
